Experimental data from US8492371B2, “Compounds as cannabinoid receptor ligands” (priority 2009, dated 2013).
Like-named read-outs stand apart in the source and are kept apart here.

Experiments:
rat CB2 receptors = target: T1, rat CB2 receptors (Rattus norvegicus, UniProt Q9QZN9); experiment: Rat CB2 radioligand binding assay ([3H]CP-55,940 competition)
T1 construct: expressed in transfected cells; host or cells: HEK293
T1 sequence (Q9QZN9 1-360): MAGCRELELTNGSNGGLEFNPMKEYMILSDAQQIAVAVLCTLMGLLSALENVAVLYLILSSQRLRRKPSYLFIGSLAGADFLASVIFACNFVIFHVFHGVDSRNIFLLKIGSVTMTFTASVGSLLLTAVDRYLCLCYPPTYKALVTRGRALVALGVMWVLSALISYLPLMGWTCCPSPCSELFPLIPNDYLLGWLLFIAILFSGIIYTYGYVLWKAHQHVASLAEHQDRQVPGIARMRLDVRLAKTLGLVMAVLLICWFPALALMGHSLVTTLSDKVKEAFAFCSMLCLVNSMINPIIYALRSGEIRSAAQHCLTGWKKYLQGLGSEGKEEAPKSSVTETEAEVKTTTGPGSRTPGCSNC
Description: HEK293 cells stably expressing rat CB2 receptors were grown until a confluent monolayer was formed. Briefly, the cells were harvested and homogenized in TE buffer (50 mM Tris-HCl, 1 mM MgCl2, and 1 mM EDTA) using a polytron for 2×10 second bursts in the presence of protease inhibitors, followed by centrifugation at 45,000×g for 20 minutes. The final membrane pellet was re-homogenized in storage buffer (50 mM Tris-HCl, 1 mM MgCl2, and 1 mM EDTA and 10% sucrose) and frozen at −78° C. until used. Saturation binding reactions were initiated by the addition of membrane preparation (protein concentration of 20 μg/well for rat CB2) into wells of a deep well plate containing [^3H]CP-55,940 (120 Ci/mmol, a nonselective CB agonist commercially available from Tocris) in assay buffer (50 mM Tris, 2.5 mM EDTA, 5 mM MgCl2, and 0.5 mg/mL fatty acid free BSA, pH 7.4). After 45 min incubation at 30° C., binding reaction was terminated by the addition of 300 μL/well of cold assay buffer followed by rapid vacuum filtration through a UniFilter-96 GF/C filter plates (pre-soaked in 1 mg/mL BSA for 2 hours). The bound activity was counted in a TopCount using Microscint-20. Saturation experiments were conducted with twelve concentrations of [^3H]CP-55,940 ranging from 0.01 to 8 nM. Competition experiments were conducted with 0.5 nM [^3H]CP-55,940 and five concentrations of displacing ligands selected from the range of 0.01 nM to […] addition of 10 μM unlabeled CP-55,940 (Tocris, Ellisville, Mo.) was used to assess nonspecific binding.

human CB2 receptors = target: T2, human CB2 receptors (Homo sapiens, UniProt P34972); experiment: Human CB2 radioligand binding assay ([3H]CP-55,940 competition)
T2 construct: expressed in transfected cells; host or cells: HEK293
T2 sequence (P34972 whole entry): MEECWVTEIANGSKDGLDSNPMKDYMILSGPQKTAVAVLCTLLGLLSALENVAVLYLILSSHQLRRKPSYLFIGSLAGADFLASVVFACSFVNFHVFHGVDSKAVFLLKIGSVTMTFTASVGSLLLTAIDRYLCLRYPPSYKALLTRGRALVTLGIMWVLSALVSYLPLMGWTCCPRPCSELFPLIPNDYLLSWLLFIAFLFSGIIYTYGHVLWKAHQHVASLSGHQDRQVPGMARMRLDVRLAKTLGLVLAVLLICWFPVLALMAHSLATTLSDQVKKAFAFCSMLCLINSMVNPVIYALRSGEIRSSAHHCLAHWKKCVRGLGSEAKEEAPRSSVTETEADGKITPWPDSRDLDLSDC
Description: The CB1 and CB2 radioligand binding assays described herein are utilized to determine the selectivity of compounds of the present invention for binding to CB2 relative to CB1 receptors.
HEK293 cells stably expressing human CB2 receptors were grown until a confluent monolayer was formed. Briefly, the cells were harvested and homogenized in TE buffer (50 mM Tris-HCl, 1 mM MgCl2, and 1 mM EDTA) using a polytron for 2×10 second bursts in the presence of protease inhibitors, followed by centrifugation at 45,000×g for 20 minutes. The final membrane pellet was re-homogenized in storage buffer (50 mM Tris-HCl, 1 mM MgCl2, and 1 mM EDTA and 10% sucrose) and frozen at −78° C. until used. Saturation binding reactions were initiated by the addition of membrane preparation (protein concentration of 5 μg/well for human CB2) into wells of a deep well plate containing ([^3H]CP-55,940 (120 Ci/mmol, a nonselective CB agonist commercially available from Tocris) in assay buffer (50 mM Tris, 2.5 mM EDTA, 5 mM MgCl2, and 0.5 mg/mL fatty acid free BSA, pH 7.4). After 90 min incubation at 30° C., binding reaction was terminated by the addition of 300 μL/well of cold assay buffer followed by rapid vacuum filtration through a UniFilter-96 GF/C filter plates (pre-soaked in 1 mg/mL BSA for 2 hours). The bound activity was counted in a TopCount using Microscint-20. Saturation experiments were conducted with twelve concentrations of [^3H]CP-55,940 ranging from 0.01 to 8 nM. Competition experiments were conducted with 0.5 nM [^3H]CP-55,940 and five concentrations of displacing ligands selected from the range of 0.01 nM to 10 μM. The addition of 10 μM unlabeled CP-55,940 (Tocris, Ellisville, Mo.) was used to assess nonspecific binding.

SMILES | Ki (rat CB2 receptors) | Ki (human CB2 receptors) | Ki (human CB2 receptors; HEK293 membranes, 0.5 nM [3H]CP-55,940, read-out: human CB2 Ki)
Cn1c(C(C)(C)C)c/c(=N\C(=O)c2cc(C(F)(F)F)ccc2OCC2(O)CCC2)n1C[C@H]1CCCO1 [Example 44, N-{(3E)-5-tert-butyl-1-methyl-2-[(2R)-tetrahydrofuran-2-ylmethyl]-1,2-dihydro-3H-pyrazol-3-ylidene}-2-[(1-hydroxycyclobutyl)methoxy]-5-(trifluoromethyl)benzamide] | 18 nM | 17 nM | 
COc1ccc(Cl)cc1C(=O)/N=c1\cc(C(C)(C)C)n(C)n1C[C@H]1CCCO1 [Example 45, N-{(3E)-5-tert-butyl-1-methyl-2-[(2R)-tetrahydrofuran-2-ylmethyl]-1,2-dihydro-3H-pyrazol-3-ylidene}-5-chloro-2-methoxybenzamide] | 4.9 nM | 8.2 nM | 
Cn1c(C(C)(C)C)c/c(=N\C(=O)c2cccc(C(F)(F)F)c2F)n1C[C@H]1CCCO1 [Example 46, N-{(3E)-5-tert-butyl-1-methyl-2-[(2R)-tetrahydrofuran-2-ylmethyl]-1,2-dihydro-3H-pyrazol-3-ylidene}-2-fluoro-3-(trifluoromethyl)benzamide] | 1.3 nM | 0.7 nM | 
COc1ccc(C(F)(F)F)cc1C(=O)/N=c1\cc(C(C)(C)C)n(C)n1C[C@H]1CCCO1 [Example 47, N-{(3E)-5-tert-butyl-1-methyl-2-[(2R)-tetrahydrofuran-2-ylmethyl]-1,2-dihydro-3H-pyrazol-3-ylidene}-2-methoxy-5-(trifluoromethyl)benzamide] | 3.7 nM | 17 nM | 
COc1ccc(C#N)cc1C(=O)/N=c1\cc(C(C)(C)C)n(C)n1C[C@H]1CCCO1 [Example 48] | 29 nM |  | 143 nM
COc1ccc(Br)cc1C(=O)/N=c1\cc(C(C)(C)C)n(C)n1C[C@H]1CCCO1 [Example 49, 5-bromo-N-{(3E)-5-tert-butyl-1-methyl-2-[(2R)-tetrahydrofuran-2-ylmethyl]-1,2-dihydro-3H-pyrazol-3-ylidene}-2-methoxybenzamide] | 20 nM | 56 nM | 
Cn1c(C(C)(C)C)c/c(=N\C(=O)c2cc(F)ccc2Cl)n1C[C@H]1CCCO1 [Example 50, N-{(3E)-5-tert-butyl-1-methyl-2-[(2R)-tetrahydrofuran-2-ylmethyl]-1,2-dihydro-3H-pyrazol-3-ylidene}-2-chloro-5-fluorobenzamide] | 54 nM | 63 nM | 
Cn1c(C(C)(C)C)c/c(=N\C(=O)c2cc(F)cc(F)c2F)n1C[C@H]1CCCO1 [Example 51, N-{(3E)-5-tert-butyl-1-methyl-2-[(2R)-tetrahydrofuran-2-ylmethyl]-1,2-dihydro-3H-pyrazol-3-ylidene}-2,3,5-trifluorobenzamide] | 67 nM | 68 nM | 
Cn1c(C(C)(C)C)c/c(=N\C(=O)c2cc(C(F)(F)F)cc(Cl)c2F)n1C[C@H]1CCCO1 [Example 52, N-{(3E)-5-tert-butyl-1-methyl-2-[(2R)-tetrahydrofuran-2-ylmethyl]-1,2-dihydro-3H-pyrazol-3-ylidene}-3-chloro-2-fluoro-5-(trifluoromethyl)benzamide] | 1.3 nM | 6.6 nM | 
COc1c(Cl)cc(C(F)(F)F)cc1C(=O)/N=c1\cc(C(C)(C)C)n(C)n1C[C@H]1CCCO1 [Example 53, N-{(3E)-5-tert-butyl-1-methyl-2-[(2R)-tetrahydrofuran-2-ylmethyl]-1,2-dihydro-3H-pyrazol-3-ylidene}-3-chloro-2-methoxy-5-(trifluoromethyl)benzamide] | 4.3 nM | 16 nM | 
Cn1c(C(C)(C)C)c/c(=N\C(=O)c2cc(C(F)(F)F)ccc2Cl)n1C[C@H]1CCCO1 [Example 54, N-{(3E)-5-tert-butyl-1-methyl-2-[(2R)-tetrahydrofuran-2-ylmethyl]-1,2-dihydro-3H-pyrazol-3-ylidene}-2-chloro-5-(trifluoromethyl)benzamide] | 9.5 nM | 17 nM | 
